Series [1] in a line: Cytotoxicity against human MIA PaCa cells by MTT assay. The format is functional, cell-based. For orientation: Tetrazolium assays rely on reduction of a dye to a coloured formazan, in cell work by metabolically active cells.
Series [2] deals with cAMP-dependent protein kinase (PKA) (Homo sapiens, UniProt P22694+P17612+P22612). The experiment in a line: Inhibition of PKA. The format is protein assay.
Series [3] is described as follows: Oral bioavailability in mouse at 10 mg/kg, po. The format is ADME, organism-based. The following applies: in vivo.
Series [4] in a line: AUC in mouse at 10 mg/kg, po. The following applies: plasma. Set-up: dose 10 mg/kg, route oral. It is filed as ADME, organism-based.
A short description of series [5]: Half life in mouse at 10 mg/kg, po. The format is ADME, organism-based. Set-up: dose 10 mg/kg, route oral. The note with it: in vivo.
A short description of series [6]: Toxicity assessed as prolongation of action potential duration in dog purkinje fibres at 20 uM. It is filed as tissue-based, Canis lupus familiaris, Purkinje fiber.
The nature of series [7]: Hypotensive effect in dog femoral artery by femoral artery relaxation assay. The format is functional, tissue-based, Canis lupus familiaris.
The nature of series [8]: Oral bioavailability in dog at 2.5 mg/kg, po. The note with it: in vivo. The format is ADME, organism-based, Canis lupus familiaris.
The nature of series [9]: Oral bioavailability in orally dosed rat. It is filed as ADME, organism-based. The following applies: in vivo.
Series [10] has as its target Voltage-gated inwardly rectifying potassium channel KCNH2 (Homo sapiens, UniProt Q12809). The experiment in a line: Inhibition of hERG by patch clamp assay. It is filed as toxicity. Background: The hERG channel carries a current that helps repolarise heart muscle cells.
A short description of series [11]: Half life in mouse at 3 mg/kg, iv. The following applies: in vivo. Set-up: dose 3 mg/kg, route intravenous. The format is ADME, organism-based.
A further series deals with Mus musculus. The series is described as follows: Toxicity assessed as decrease in MAP in mouse at 150 mg/kg, po. It is filed as organism-based. Also noted: dose 150 mg/kg, route oral. The note with it: in vivo.
Series [12] has as its system Canis familiaris. The series is described as follows: Cardiovascular toxicity assessed as induction of acute hypotension in dog at 25 mg/kg, iv by femoral artery relaxation assay. It is filed as organism-based, Canis lupus familiaris. The following applies: in vivo. Also noted: dose 25 mg/kg, route intravenous.
The subject of series [13] is Canis familiaris. The experiment in a line: Toxicity assessed as decrease in MAP in dog infused at 0.48 mg/kg/min. The following applies: in vivo. The format is organism-based, Canis lupus familiaris.

Chain of Voltage-gated inwardly rectifying potassium channel KCNH2 (Q12809 whole entry): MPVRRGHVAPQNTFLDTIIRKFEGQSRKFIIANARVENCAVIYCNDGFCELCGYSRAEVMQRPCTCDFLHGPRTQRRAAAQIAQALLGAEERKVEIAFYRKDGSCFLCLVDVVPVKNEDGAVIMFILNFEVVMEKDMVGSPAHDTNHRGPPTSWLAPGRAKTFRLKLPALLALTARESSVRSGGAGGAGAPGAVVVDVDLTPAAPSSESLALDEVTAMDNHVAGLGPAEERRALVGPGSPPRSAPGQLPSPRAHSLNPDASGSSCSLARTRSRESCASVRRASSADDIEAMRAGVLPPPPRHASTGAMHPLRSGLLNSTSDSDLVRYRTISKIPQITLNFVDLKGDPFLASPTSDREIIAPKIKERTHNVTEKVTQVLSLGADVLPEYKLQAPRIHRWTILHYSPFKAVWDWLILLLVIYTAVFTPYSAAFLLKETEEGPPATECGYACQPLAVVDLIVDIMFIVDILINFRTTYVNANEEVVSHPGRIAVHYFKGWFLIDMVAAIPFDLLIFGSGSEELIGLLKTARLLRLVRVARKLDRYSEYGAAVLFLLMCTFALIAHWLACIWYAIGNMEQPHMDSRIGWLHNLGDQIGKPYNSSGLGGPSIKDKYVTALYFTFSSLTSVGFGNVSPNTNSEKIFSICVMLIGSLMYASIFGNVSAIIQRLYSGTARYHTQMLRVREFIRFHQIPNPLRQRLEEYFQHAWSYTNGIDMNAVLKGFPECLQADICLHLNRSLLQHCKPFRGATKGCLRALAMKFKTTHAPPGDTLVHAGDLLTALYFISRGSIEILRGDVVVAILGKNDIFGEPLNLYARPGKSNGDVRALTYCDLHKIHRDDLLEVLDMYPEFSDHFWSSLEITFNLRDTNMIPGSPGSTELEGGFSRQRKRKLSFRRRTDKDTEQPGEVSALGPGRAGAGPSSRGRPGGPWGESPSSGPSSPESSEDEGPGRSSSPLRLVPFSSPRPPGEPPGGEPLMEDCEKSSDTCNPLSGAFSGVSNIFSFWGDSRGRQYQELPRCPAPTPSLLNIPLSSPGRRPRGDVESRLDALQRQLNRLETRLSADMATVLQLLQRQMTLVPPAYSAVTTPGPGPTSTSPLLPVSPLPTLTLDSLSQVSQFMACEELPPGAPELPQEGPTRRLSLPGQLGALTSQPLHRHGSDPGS

Regarding `Cc1n[nH]c2ccc(-c3cncc(OC[C@@H](N)Cc4ccccc4OC(F)(F)F)c3)cc12`, the midpoint of the response in series [1], the EC50, lay at 230 nM.
For `COc1ccc(F)cc1C[C@H](N)COc1cncc(-c2ccc3[nH]nc(C)c3c2)c1`, a half-maximal response in [1] (EC50) required 230 nM.
Compound `Cc1n[nH]c2ccc(-c3cncc(OC[C@@H](N)Cc4cccc(C(F)(F)F)c4)c3)cc12` returned an EC50 in series [1] of 600 nM. For the same compound, in series [2], the half-inhibitory concentration (IC50) is reported as 5 nM.
For `Cc1n[nH]c2ccc(-c3cncc(OC[C@@H](N)Cc4ccc(F)c(C(F)(F)F)c4)c3)cc12`, the response in [1] was half-maximal at 600 nM (EC50).
Same read-out and setting: as for `Cc1n[nH]c2ccc(-c3cncc(OC[C@@H](N)Cc4ccc5c(c4)OC(F)(F)C(F)(F)O5)c3)cc12`, the figure is 3700 nM.
In [1], `Cc1n[nH]c2ccc(-c3cncc(OC[C@@H](N)Cc4cccc(OCC5CCNCC5)c4)c3)cc12` yielded an EC50 of 250 nM.
As to `Cc1n[nH]c2ccc(-c3cncc(OC[C@@H](N)Cc4cccc(OCC5CCCCC5)c4)c3)cc12`, in series [1], a half-maximal effect (EC50) was put at 16500 nM. Compared with the last compound, the EC50 is about 66-fold higher.
Still for that read-out and setting: as for `Cc1n[nH]c2ccc(-c3cncc(OC[C@@H](N)Cc4cccc(OCC5CCN(C)CC5)c4)c3)cc12`, the figure is 1250 nM; as for `Cc1n[nH]c2ccc(-c3cncc(OC[C@@H](N)Cc4cccc(OCCN)c4)c3)cc12`, 4800 nM.
In the case of `N[C@H](COc1cncc(-c2cc3cn[nH]c3cn2)c1)Cc1cccc(C(F)(F)F)c1`, a half-maximal response in series [1] (EC50) required 2390 nM. Also, the IC50 in series [2] is listed as 78 nM.
Compound `Cc1n[nH]c2cnc(-c3cncc(OC[C@@H](N)Cc4cccc(C(F)(F)F)c4)c3)cc12` had a bioavailability in [3] of 25%. In series [4], this compound displayed an AUC of 1.7 µM·h. Moreover, the half-life in series [5] was 1.84 h. This compound also displayed an EC50 in series [1] of 370 nM. This compound also gave an IC50 in [2] of 13 nM. The Activity in [6] is listed as -4%.
Regarding `Cc1cc(C[C@H](N)COc2cncc(-c3ccc4[nH]nc(C)c4c3)c2)ccc1Br`, the EC50 in series [1] was 1260 nM.
Still for that read-out and setting: as for `Cc1ccc(C[C@H](N)COc2cncc(-c3ccc4[nH]nc(C)c4c3)c2)cc1F`, the figure is 330 nM; as for `Cc1cc(C)c(C[C@H](N)COc2cncc(-c3ccc4[nH]nc(C)c4c3)c2)c(C)c1`, 1610 nM.
Still for that read-out and setting: as for `Cc1n[nH]c2ccc(-c3cncc(OC[C@@H](N)Cc4cccc(OC(F)(F)F)c4)c3)cc12`, the figure is 830 nM.
For the compound `Cc1n[nH]c2ccc(-c3cncc(OC[C@@H](N)Cc4cc(C(F)(F)F)ccc4F)c3)cc12`, in [1], the EC50 came out at 970 nM.
Same read-out and setting: as for `Cc1n[nH]c2ccc(-c3cncc(OC[C@@H](N)Cc4ccc(C(F)(F)F)cc4F)c3)cc12`, the figure is 2900 nM.
Same read-out and setting: as for `Cc1n[nH]c2ccc(-c3cncc(OC[C@@H](N)Cc4ccc(OC(F)(F)F)cc4)c3)cc12`, the figure is 1700 nM; as for `Cc1n[nH]c2ccc(-c3cncc(OC[C@@H](N)Cc4ccc5c(c4)OCO5)c3)cc12`, 580 nM.
As to `Cc1n[nH]c2ccc(-c3cncc(OC[C@@H](N)Cc4cccc5c4OC(F)(F)O5)c3)cc12`, a half-maximal response in series [1] (EC50) required 680 nM.
Same read-out and setting: as for `Cc1n[nH]c2ccc(-c3cncc(OC[C@@H](N)Cc4ccc(Br)cc4F)c3)cc12`, the figure is 900 nM.
On the same count and under the same terms, as for `Cc1n[nH]c2ccc(-c3cncc(OC[C@@H](N)Cc4ccc(Br)c(F)c4)c3)cc12`, the figure is 430 nM.
The compound `Cc1ccc(F)cc1C[C@H](N)COc1cncc(-c2ccc3[nH]nc(C)c3c2)c1` came in with an EC50 in series [1] of 240 nM.
For `Cc1n[nH]c2ccc(-c3cncc(OC[C@@H](N)Cc4cccc(F)c4)c3)cc12`, the response in series [1] was half-maximal at 260 nM (EC50).
On the same count and under the same terms, as for `Cc1n[nH]c2ccc(-c3cncc(OC[C@@H](N)Cc4ccc(F)cc4F)c3)cc12`, the figure is 930 nM; as for `Cc1n[nH]c2ccc(-c3cncc(OC[C@@H](N)Cc4cccc(I)c4)c3)cc12`, 810 nM; as for `Cc1n[nH]c2ccc(-c3cncc(OC[C@@H](N)Cc4ccc(F)c(F)c4F)c3)cc12`, 290 nM.
Still for that read-out and setting: as for `Cc1n[nH]c2ccc(-c3cncc(OC[C@@H](N)Cc4cccc(Cl)c4)c3)cc12`, the figure is 450 nM.
`Cc1n[nH]c2ccc(-c3cncc(OC[C@@H](N)Cc4ccc(Cl)cc4)c3)cc12` had an EC50 in [1] of 440 nM.
The same measure, in the same setting: as for `Cc1n[nH]c2ccc(-c3cncc(OC[C@@H](N)Cc4ccccc4Br)c3)cc12`, the figure is 340 nM.
Take `Cc1n[nH]c2ccc(-c3cncc(OC[C@@H](N)Cc4ccc(Br)cc4)c3)cc12`: in series [1], the response was half-maximal at 700 nM (EC50).
Regarding `Cc1n[nH]c2ccc(-c3cncc(OC[C@@H](N)Cc4ccc(Cl)c(F)c4)c3)cc12`, the bioavailability in [3] came out at 84%; in [8] it was 40%; in series [9], 38%. Further, the AUC in series [4] was determined as 2.3 µM·h. Moreover, the half-life in series [5] is 2.1 h. Besides, the results for the EC50 in series [1] and in series [7] were 270 nM and 6000 nM, respectively. In addition, in [6], the Activity was -1.3%.
`Cc1n[nH]c2ccc(-c3cncc(OC[C@@H](N)Cc4cccc(Cl)c4Cl)c3)cc12` returned an EC50 in series [1] of 210 nM.
`Cc1n[nH]c2ccc(-c3cncc(OC[C@@H](N)Cc4ccc(Cl)c(Cl)c4)c3)cc12`: the EC50 in [1] worked out at 490 nM. Compared with the last compound, the EC50 is about 2.3-fold higher.
On the same count and under the same terms, as for `Cc1n[nH]c2ccc(-c3cncc(OC[C@@H](N)Cc4cc(F)cc(C(F)(F)F)c4)c3)cc12`, the figure is 1380 nM; as for `Cc1n[nH]c2ccc(-c3cncc(OC[C@@H](N)Cc4ccc(C(F)(F)F)c(F)c4)c3)cc12`, 1430 nM.
On to `Cc1n[nH]c2ccc(-c3cncc(OC[C@@H](N)Cc4ccc(F)c(Cl)c4)c3)cc12`, for which, in series [1], the 50% effective concentration (EC50) turned out to be 670 nM. Against the preceding compound, the EC50 is about 2.1-fold lower.
`Cc1n[nH]c2ccc(-c3cncc(OC[C@@H](N)Cc4cc(Cl)cc(Cl)c4)c3)cc12` returned an EC50 in [1] of 1000 nM.
Same read-out and setting: as for `Cc1cc(F)ccc1C[C@H](N)COc1cncc(-c2ccc3[nH]nc(C)c3c2)c1`, the figure is 340 nM.
For `Cc1n[nH]c2ccc(-c3cncc(OC[C@@H](N)Cc4ccccc4)c3)cc12`, the IC50 in series [10] was determined as 13400 nM. Moreover, the bioavailability in series [3] turned out to be 70%. For the same compound, the half-life in series [11] and in series [5] was 1 h each time. In [4], the AUC is 2 µM·h. This compound also showed an EC50 in [1] of 640 nM. Also, the Activity is on record as 31 mmHg in the series with Mus musculus and “Toxic” in series [6].
Compound `Cc1n[nH]c2ccc(-c3cncc(OC[C@@H](N)Cc4cccc(OCCC5CCNCC5)c4)c3)cc12` displayed a 50% effective concentration (EC50) in series [1] of 2740 nM.
As to `N[C@H](COc1cncc(-c2ccc3c(c2)/C(=C/c2ccc[nH]2)C(=O)N3)c1)Cc1ccccc1`, the bioavailability in series [3] was 0%. Also, the half-life in series [11] was 0.5 h. Besides, in series [7], a half-maximal effect (EC50) was put at 354000 nM. The Activity with Canis familiaris [12] came to 30 mmHg.
The compound `N[C@H](COc1cncc(-c2cc3c(Cl)n[nH]c3cn2)c1)Cc1cccc(C(F)(F)F)c1` had an EC50 in [1] of 1380 nM. The compound further came in with an IC50 in series [2] of 15 nM.
Regarding `Cc1n[nH]c2ccc(-c3cncc(OC[C@@H](N)Cc4ccccc4Cl)c3)cc12`, in series [1], the EC50 is 380 nM.
As to `Cc1n[nH]c2ccc(-c3cncc(OC[C@@H](N)Cc4cccc(Br)c4)c3)cc12`, the EC50 in series [1] is 370 nM.
As to `Cc1n[nH]c2ccc(-c3cncc(OC[C@@H](N)Cc4cccc(OCCN5CCOCC5)c4)c3)cc12`, the midpoint of the response in series [1], the EC50, lay at 13000 nM.
In series [1], `Cc1n[nH]c2cnc(-c3cncc(OC[C@@H](N)Cc4cccc(F)c4F)c3)cc12` had an EC50 of 260 nM. Also, the 50% inhibitory concentration (IC50) in [2] is on record as 7 nM.
Compound `Cc1cc(C[C@H](N)COc2cncc(-c3ccc4[nH]nc(C)c4c3)c2)ccc1F` displayed an EC50 in series [1] of 1070 nM.
The compound `Cc1n[nH]c2ccc(-c3cncc(OC[C@@H](N)Cc4cccc(F)c4F)c3)cc12` came in with an EC50 in [1] of 180 nM. The compound also registered an IC50 in series [2] of 9 nM.
Turning to `N[C@H](COc1cncc(-c2ccc3c(c2)/C(=C\c2ccco2)C(=O)N3)c1)Cc1ccccc1` (stereo in doubt), the bioavailability in series [3] is 0%. The same compound had a half-life in series [11] of 1.15 h.
Consider `Cc1n[nH]c2ccc(-c3cncc(OC[C@@H](N)Cc4c[nH]c5ccccc45)c3)cc12` [A-443654], for which the half-life in [11] and in series [5] was 0.6 h in each case. The values for the Activity (in the series on Canis familiaris [13]; in [6]) were 60 mmHg and 2.4%, respectively.

Broadly, the EC50 is the concentration giving half of the maximal effect. High values mean a need for much substance, low ones an effect from little substance. By IC50 is commonly meant the concentration at which inhibition is half-maximal. High values mean lower potency, low ones higher potency. In general, bioavailability refers to dose-corrected exposure relative to a reference, in per cent. A low value points to little systemic uptake. The AUC is concentration integrated over time. A word on the half-life: it is how long it takes for the measured level to halve. Low readings indicate fast loss, high ones slow loss.

(Values after ChEMBL document CHEMBL1145373, “Syntheses of potent, selective, and orally bioavailable indazole-pyridine series of protein kinase B/Akt inhibitors with reduced hypotension” (J Med Chem, 2007).)
